Assays:
[1] = test system: prostate cancer CWR22RV1 xenografts; assay: MicroPET imaging of nude mice with CWR22RV1 xenografts; format: in vivo
Experimental: Small animal PET imaging was performed on MicroPET, to evaluate the potential of 2-[^18F]-fluoropropanoic acid (2-[^18F]-FPA), and 2-[^18F]-fluorobutanoic acid (2-[^18F]-FBA) as tumor imaging agents in mice with prostate cancer CWR22RV1 xenografts. […] In addition to uptake in the tumor, there is high uptake in heart and brain.
The mice were imaged using MicroPET first with [^18F]-FDG after 4 hour fasting 1 hour post injection. The activity was allowed to decay for 20 hrs and the same mice were imaged with 2-[^18F]-FPA 1 hour post injection. In case of 2-[^18F]-FPA, the animals were not fasted. […] 2-[^18F]-FPA has high uptake in brain like [^18F]
(§1) All animal experiments were done in accordance with protocols approved by the Institutional Animal Care and Use Committee of Memorial Sloan-Kettering Cancer Center and followed National Institutes of Health guidelines for animal welfare. Subcutaneous tumors were produced in nude mice (20-25 g; Charles River Laboratories) by subcutaneous injection of 5×10^6 tumor cells in 200 μl consisting of 100 μl of cell culture medium and 100 μl of Matrigel under 2% Isofluorane anesthesia on the right forelimb of mice.
Imaging was performed by use of a dedicated small-animal PET scanner (Focus 120 microPET; Siemens Medical Solutions USA, Inc.). Mice were maintained under 2% isoflurane anesthesia in oxygen at 2 L/min during the entire scanning period. Imaging was performed one hour post administration of 11.1 MBq (300 μCi) of either 2-[^18F]-FPA or [^18F]-FDG via the lateral tail vein. An energy window of 350-700 keV and a coincidence timing window of 6 ns were used. The image data were corrected for non-uniformity of the scanner response, dead time count losses, and physical decay to the time of injection. No correction was applied for attenuation, scatter, or partial-volume averaging. The measured reconstructed spatial resolution of the Focus 120 scanner is ˜1.6 mm full width at half maximum at the center of the field of view.

[2] = test system: CWR22RV1 xenografts; assay: single isotope [18F] biodistribution study in mice with CWR22rv1 tumors; format: in vivo; conditions: for tumor to organ ratio, blood / tumor to organ ratio, bone / tumor to organ ratio, heart / tumor to organ ratio, kidneys / tumor to organ ratio, large intestine / tumor to organ ratio, liver / tumor to organ ratio, lungs / tumor to organ ratio, muscle / tumor to organ ratio, small intestine / tumor to organ ratio, spine / tumor to organ ratio, spleen / tumor to organ ratio, stomach: tail vein, nude mice with CWR22RV1 xenografts
Experimental: as §1
For single isotope ([^18F]) biodistribution studies, mice with CWR22rv1 tumors were injected intravenously in the tail vein with 3.7-5.5 MBq (100-150 μCi) of [^18F]-FPA in 200 μL of saline. Radioactivity in the syringe before and after administration was measured in an energy-calibrated dose calibrator (CRC-15R; Capintec) and exact quantity received by each animal was determined. The animals were euthanized at different time points and then the organs were harvested. [^18F] radioactivity was measured in a calibrated gamma counter (Perkin Elmer 1480 Wizard 3 Auto Gamma counter, Waltham, Mass.) using 400-600 keV energy window and decay correction. The counts were converted into activity and % ID/g was calculated by dividing with decay corrected injected activity and weight of the organ. […] In addition to tumor, there is high uptake in blood and heart. The tumor to organ ratio of 2-[^18F]-FPA at 1, 2, 3 and 4 hour post injection is: […]

[3] = test system: rats; conditions: Dreisbach's Handbook of Poisoning; cited from earlier work
[4] = test system: rats; assay: toxicity in rats (oral LD50 / single dose); conditions: given at 212 mg/kg to rats
[5] = summary over 1-4 hour post injection

With `CC([18F])C(=O)O` (centres unmarked) [2-[^18F]-FPA, 2-[^18F]-fluoropropanoic acid] the “uptake in brain (MicroPET)” value ([1]; 1 hour post injection) was “high uptake”, the “accumulation in the kidneys of mice, unlike [18F]-FDG” value ([1]; 1 hour post injection, FIG. 1) was “much lower accumulation” and the “tumor visualization as compared to [18F]-FDG” value ([1]; 1 hour post injection, same mice, FIG. 1) was “much more clearly”. The “uptake in heart (MicroPET)” value ([1]; one hour post administration) was “high uptake”, the “tumor visualization in MicroPET image” value ([1]; one hour post administration, transaxial and coronal slices, 5 minute acquisition time) was “easily visualized” and the “biodistribution during the time of study” value ([2]; 1, 2, 3 and 4 hour post administration via tail vein) was “remains similar”. For the same molecule, the “accumulation of tracer in tumor” value ([2]; 1-4 hour post administration) was “considerable accumulation”, the uptake in blood ([2]; 1-4 hour post administration) was “high uptake” and the “uptake in heart (biodistribution)” value ([2]; 1-4 hour post administration) was “high uptake”. For the same molecule, the “tumor to organ ratio, blood” value ([2]; 1 hour post injection) was 1.05, the “tumor to organ ratio, bone” value ([2]; 1 hour post injection) was 2.79 and the “tumor to organ ratio, heart” value ([2]; 1 hour post injection) was 0.90. For the same molecule, the “tumor to organ ratio, kidneys” value ([2]; 1 hour post injection) was 1.43, the “tumor to organ ratio, large intestine” value ([2]; 1 hour post injection) was 1.39 and the “tumor to organ ratio, liver” value ([2]; 1 hour post injection) was 1.35. For the same molecule, the “tumor to organ ratio, lungs” value ([2]; 1 hour post injection) was 1.22, the “tumor to organ ratio, muscle” value ([2]; 1 hour post injection) was 1.79 and the “tumor to organ ratio, small intestine” value ([2]; 1 hour post injection) was 1.26. For the same molecule, the “tumor to organ ratio, spine” value ([2]; 1 hour post injection) was 1.76, the “tumor to organ ratio, spleen” value ([2]; 1 hour post injection) was 1.40 and the “tumor to organ ratio, stomach” value ([2]; 1 hour post injection) was 2.50. The “tumor to organ ratio, blood” value ([2]; 2 hours post injection) was 1.03, the “tumor to organ ratio, bone” value ([2]; 2 hours post injection) was 2.14 and the “tumor to organ ratio, heart” value ([2]; 2 hours post injection) was 0.94. For the same molecule, the “tumor to organ ratio, kidneys” value ([2]; 2 hours post injection) was 1.57, the “tumor to organ ratio, large intestine” value ([2]; 2 hours post injection) was 1.49 and the “tumor to organ ratio, liver” value ([2]; 2 hours post injection) was 1.24. For the same molecule, the “tumor to organ ratio, lungs” value ([2]; 2 hours post injection) was 1.17, the “tumor to organ ratio, muscle” value ([2]; 2 hours post injection) was 1.79 and the “tumor to organ ratio, small intestine” value ([2]; 2 hours post injection) was 1.57. The “tumor to organ ratio, spine” value ([2]; 2 hours post injection) was 1.61, the “tumor to organ ratio, spleen” value ([2]; 2 hours post injection) was 1.56 and the “tumor to organ ratio, stomach” value ([2]; 2 hours post injection) was 3.60. For the same molecule, the “tumor to organ ratio, blood” value ([2]; 3 hours post injection) was 1.04, the “tumor to organ ratio, bone” value ([2]; 3 hours post injection) was 2.58 and the “tumor to organ ratio, heart” value ([2]; 3 hours post injection) was 1.07. For the same molecule, the “tumor to organ ratio, kidneys” value ([2]; 3 hours post injection) was 1.60, the “tumor to organ ratio, large intestine” value ([2]; 3 hours post injection) was 1.51 and the “tumor to organ ratio, liver” value ([2]; 3 hours post injection) was 1.33. The “tumor to organ ratio, lungs” value ([2]; 3 hours post injection) was 1.30, the “tumor to organ ratio, muscle” value ([2]; 3 hours post injection) was 1.76 and the “tumor to organ ratio, small intestine” value ([2]; 3 hours post injection) was 1.58. The “tumor to organ ratio, spine” value ([2]; 3 hours post injection) was 1.57, the “tumor to organ ratio, spleen” value ([2]; 3 hours post injection) was 1.62 and the “tumor to organ ratio, stomach” value ([2]; 3 hours post injection) was 4.48. For the same molecule, the “tumor to organ ratio, blood” value ([2]; 4 hours post injection) was 1.06, the “tumor to organ ratio, bone” value ([2]; 4 hours post injection) was 1.90 and the “tumor to organ ratio, heart” value ([2]; 4 hours post injection) was 1.00. For the same molecule, the “tumor to organ ratio, kidneys” value ([2]; 4 hours post injection) was 1.29, the “tumor to organ ratio, large intestine” value ([2]; 4 hours post injection) was 1.87 and the “tumor to organ ratio, liver” value ([2]; 4 hours post injection) was 1.41. The “tumor to organ ratio, lungs” value ([2]; 4 hours post injection) was 1.32, the “tumor to organ ratio, muscle” value ([2]; 4 hours post injection) was 1.85 and the “tumor to organ ratio, small intestine” value ([2]; 4 hours post injection) was 1.44. The “tumor to organ ratio, spine” value ([2]; 4 hours post injection) was 1.44, the “tumor to organ ratio, spleen” value ([2]; 4 hours post injection) was 1.56 and the “tumor to organ ratio, stomach” value ([2]; 4 hours post injection) was 3.54. For the same molecule, the “tumor to organ ratio, heart (overall)” value [2, 5] was “around 0.95” and the “tumor to organ ratio, most of the organs except heart” value [2, 5] was “greater than 1”.

In the case of `O=C(O)CF` [2-fluoroacetic acid], the “oral LD50 in rats” value [3] is listed as 0.22 mg/kg.

In the case of `CC(F)C(=O)O` (centres unmarked) [2-fluoropropanoic acid], the toxicity in rats [4] is reported as “no toxicity was observed”.

In the case of `OC[C@H]1OC(O)[C@H]([18F])[C@@H](O)[C@@H]1O` (some centres unmarked) [[^18F]-FDG, [^18F]-fluorodeoxyglucose, reference compound], the “uptake in brain (MicroPET)” value ([1]; 1 hour post injection) is reported as “high uptake”.
